Laboratory results: patent US8012979B2, “Compounds and their uses 707” (AstraZeneca AB, priority 2007, dated 2011)
Where a name gives a salt, the structure may show the parent alone.

What follows are molecules tested against T1, human active recombinant p38α-6His tagged (Homo sapiens, UniProt Q16539) (assay: p38 Alpha Enzyme Assay (AlphaScreen, biotinylated-ATF2 substrate)). Details: pre-incubated 4 hours at 37° C., reaction initiated with ATP; 0.5 nM enzyme; read-out: p38 pIC50 (converted).
T1 construct: 6His
Assay type: biochemical
Protocol: The ability of the compounds of formula (I) to inhibit p38 kinase may be determined using the following biological assay:
Enzyme assays were performed in polypropylene 96 well plates. The following solutions were added to each well; 10 μL of compound dilutions in assay buffer (20 mM HEPES pH 7.4, containing 20 mM magnesium acetate, 0.005% (w/v) Tween-20, 10 mM DTT) containing 1% (v/v) DMSO or assay buffer containing 1% (v/v) DMSO alone, 70 μL of assay buffer containing 36 nM substrate (biotinylated-ATF2) and 10 μL of an appropriate dilution of human active recombinant p38α-6His tagged. Depending on batch of p38, an appropriate dilution was typically a 5 nM solution to give a final enzyme concentration of 0.5 nM. At this stage, background control wells also received 50 μL of AlphaScreen quench buffer (10 mM HEPES pH 7.4 containing 100 mM EDTA, 0.2% (w/v) bovine serum albumin). The plate was covered, pre-incubated for 4 hours at 37° C. and the enzyme reaction initiated by addition of 10 μL 1 mM ATP. After incubation for a further 45 minutes at 37° C., the reaction was stopped by addition of 50 μL quench reagent and 50 μL of the quenched reaction mixture transferred to an opaque, white 96-well plate. Detection reagent, 25 μL of 10 mM HEPES pH 7.4 containing 100 mM EDTA, 0.2% (w/v) bovine serum albumin, 0.3 nM anti phosphoATF2 antibody and 25 μg/mL of ‘AlphaScreen protein A acceptor and donor beads’ (PerkinElmer Inc.), was added to all wells in a darkened room, the plate sealed and left in the dark for at least 5 hours before AlphaScreen readings were taken using a Perkin Elmer EnVision reader. Total, uninhibited activity was determined from assays performed in each assay plate. The mean control in the absence of p38 activity was subtracted from each well. Data were expressed as percent inhibition of total activity using equation 1. Percent Inhibition=100*(1−Test/Control) Eq.1 Where . . . . • Test=p38 kinase activity in the presence of compound • Control=p38 kinase activity in the absence of compound.
pIC50 is defined as the logarithm of the reciprocal of the concentration of compound required for 50% reduction in total p38 kinase activity.

T1 sequence (Q16539 whole entry): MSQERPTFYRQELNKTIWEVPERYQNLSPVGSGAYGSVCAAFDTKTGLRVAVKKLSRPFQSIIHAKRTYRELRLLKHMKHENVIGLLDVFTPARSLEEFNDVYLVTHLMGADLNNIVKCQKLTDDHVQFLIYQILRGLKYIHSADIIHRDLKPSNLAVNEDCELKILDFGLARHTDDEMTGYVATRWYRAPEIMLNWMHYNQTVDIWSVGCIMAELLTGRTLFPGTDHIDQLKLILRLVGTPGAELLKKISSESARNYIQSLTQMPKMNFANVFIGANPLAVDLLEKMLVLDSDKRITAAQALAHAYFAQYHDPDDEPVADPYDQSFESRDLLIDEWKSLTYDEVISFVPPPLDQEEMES

IC50 | SMILES
1.58 nM | Cc1ccc(C(=O)NC2CC2)cc1-c1ccc2c(=O)n(Cc3ccncc3)cc(C(=O)NC3CCNCC3)c2c1 [Example 57, 6-(5-Cyclopropylcarbamoyl-2-methyl-phenyl)-1-oxo-2-pyridin-4-ylmethyl-1,2-dihydro-isoquinoline-4-carboxylic acid piperidin-4-ylamide]
0.398 nM | Cc1c(F)cc(C(=O)NC2CC2)cc1-c1ccc2c(=O)n(Cc3ccccc3)cc(C(=O)NCCN(C)C)c2c1 [Example 60, 2-Benzyl-6-(5-(cyclopropylcarbamoyl)-3-fluoro-2-methylphenyl)-N-(2-(dimethylamino)ethyl)-1-oxo-1,2-dihydroisoquinoline-4-carboxamide]
3.16 nM | Cc1ccc(C(=O)NC2CC2)cc1-c1ccc2c(=O)n(Cc3cccc(CN(C)C)c3)ccc2c1 [Example 15, N-Cyclopropyl-3-[2-(3-dimethylaminomethyl-benzyl)-1-oxo-1,2-dihydro-isoquinolin-6-yl]-4-methyl-benzamide]
1 nM | Cc1ccc(C(=O)NC2CC2)cc1-c1ccc2c(=O)n(Cc3ccccc3)cc(CCCN3CCCC3)c2c1 [Example 100, 3-(2-Benzyl-1-oxo-4-(3-(pyrrolidin-1-yl)propyl)-1,2-dihydroisoquinolin-6-yl)-N-cyclopropyl-4-methylbenzamide]

Further lines, the molecule ahead of its results:

SMILES | IC50
Cc1c(F)cc(C(=O)NC2CC2)cc1-c1ccc2c(=O)n(CC3CC3)cc(CN3CCNCC3)c2c1 [Example 88, N-Cyclopropyl-3-(2-(cyclopropylmethyl)-1-oxo-4-(piperazin-1-ylmethyl)-1,2-dihydroisoquinolin-6-yl)-5-fluoro-4-methylbenzamide] | 0.0631 nM
Cc1c(F)cc(C(=O)NC2CC2)cc1-c1ccc2c(=O)n(CC3CC3)cc(CN3CCC[N+]([O-])(CCO)CC3)c2c1 (stereo not drawn) [Example 79, 4-((6-(5-(Cyclopropylcarbamoyl)-3-fluoro-2-methylphenyl)-2-(cyclopropylmethyl)-1-oxo-1,2-dihydroisoquinolin-4-yl)methyl)-1-(2-hydroxyethyl)-1,4-diazepane 1-oxide] | 0.631 nM
Cc1c(F)cc(C(=O)NC2CC2)cc1-c1ccc2c(=O)n(CC3CC3)cc(CN3CCC[C@@H]3CN)c2c1 [Example 120, (R)-3-(4-((2-(Aminomethyl)pyrrolidin-1-yl)methyl)-2-(cyclopropylmethyl)-1-oxo-1,2-dihydroisoquinolin-6-yl)-N-cyclopropyl-5-fluoro-4-methylbenzamide] | 0.794 nM
Cc1ccc(C(=O)NC2CC2)cc1-c1ccc2c(=O)n(Cc3ccc(C4=CCNCC4)cc3)ccc2c1 [Example 7, N-Cyclopropyl-4-methyl-3-[1-oxo-2-{4-(1,2,3,6-tetrahydro-pyridin-4-yl)-benzyl}-1,2-dihydro-isoquinolin-6-yl]-benzamide, hydrochloride] | 0.398 nM
CCNC(=O)c1ccc(C)c(-c2ccc3c(=O)n(Cc4ccccc4)ccc3c2)c1 [Example 2, 3-(2-Benzyl-1-oxo-1,2-dihydro-isoquinolin-6-yl)-N-ethyl-4-methyl-benzamide] | 7.94 nM
Cc1c(F)cc(C(=O)NC2CC2)cc1-c1ccc2c(=O)n(CC3CC3)cc(CN3CCC(N)CC3)c2c1 [Example 83, 3-(4-((4-Aminopiperidin-1-yl)methyl)-2-(cyclopropylmethyl)-1-oxo-1,2-dihydroisoquinolin-6-yl)-N-cyclopropyl-5-fluoro-4-methylbenzamide] | 0.0794 nM
Cc1c(F)cc(C(=O)NC2CC2)cc1-c1ccc2c(=O)n(CC3CC3)cc(CNCC3CCNCC3)c2c1 [Example 89, N-Cyclopropyl-3-(2-(cyclopropylmethyl)-1-oxo-4-((piperidin-4-ylmethylamino)methyl)-1,2-dihydroisoquinolin-6-yl)-5-fluoro-4-methylbenzamide] | 0.794 nM
Cc1ccc(C(=O)NC2CC2)cc1-c1ccc2c(=O)n(CC3CC3)cc(CN3CCN(C)CC3)c2c1 [Example 74, N-Cyclopropyl-3-(2-(cyclopropylmethyl)-4-((4-methylpiperazin-1-yl)methyl)-1-oxo-1,2-dihydroisoquinolin-6-yl)-4-methylbenzamide] | 0.631 nM
